Test results: patent US10548317B2, “Pesticidally active pyrazole derivatives” (SYNGENTA PARTICIPATIONS AG, priority 2015, dated 2020)

Columns and labels:
Assay type in all cases: in vivo
Spodoptera littoralis = Spodoptera littoralis (Egyptian cotton leaf worm) leaf disc spray test; settings: foliar, 72 h, application rate of 200 ppm, cotton leaf discs, L1 larvae, 3 days after infestation, read-out: control (at least one of mortality, anti-feedant effect, growth inhibition)
Protocol: Spodoptera littoralis (Egyptian Cotton Leaf Worm)
Cotton leaf discs were placed on agar in 24-well microtiter plates and sprayed with aqueous test solutions prepared from 10'000 ppm DMSO stock solutions. After drying the leaf discs were infested with five L1 larvae. The samples were assessed for mortality, anti-feedant effect, and growth inhibition in comparison to untreated samples 3 days after infestation. Control of Spodoptera littoralis by a test sample is when at least one of mortality, anti-feedant effect, and growth inhibition is higher than the untreated sample.

Plutella xylostella = Plutella xylostella (diamond back moth) artificial diet test; settings: 120 h, application rate of 200 ppm, L2 larvae, 5 days after infestation, read-out: effect in at least one of the two categories (mortality or growth inhibition)
Protocol: Plutella xylostella (Diamond Back Moth):
24-well microtiter plates with artificial diet were treated with aqueous test solutions prepared from 10'000 ppm DMSO stock solutions by pipetting. After drying, the plates were infested with L2 larvae (10 to 15 per well). The samples were assessed for mortality and growth inhibition in comparison to untreated samples 5 days after infestation. The following compounds gave an effect of at least 80% in at least one of the two categories (mortality or growth inhibition) at an application rate of 200 ppm: 1, 2, 3, 4, 5, 6, 7, 8, 9, 10, 11, 12, 13, 14, 15, 16, 17, 18, 19, 20, 21, 22, 23, 24, 25, 26, 27, 28, 29, 30, 31, 32, 33, 35, 36, 37, 38, 39, 40, 41, 42, 43, 44, 45, 46, 47, 48, 50, 51, 52, 53, 54 and 55.

Diabrotica balteata = Diabrotica balteata (corn root worm) maize sprout test; settings: 96 h, application rate of 200 ppm, maize sprouts, L2 larvae, 4 days after infestation, read-out: effect in at least one of the two categories (mortality or growth inhibition)
Protocol: Diabrotica balteata, (Corn Root Worm)
Maize sprouts, placed on an agar layer in 24-well microtiter plates were treated with aqueous test solutions prepared from 10'000 ppm DMSO stock solutions by spraying. After drying, the plates were infested with L2 larvae (6 to 10 per well). The samples were assessed for mortality and growth inhibition in comparison to untreated samples 4 days after infestation. The following compounds gave an effect of at least 80% in at least one of the two categories (mortality or growth inhibition) at an application rate of 200 ppm: 1, 3, 4, 5, 6, 7, 8, 9, 10, 11, 12, 14, 15, 16, 17, 18, 19, 20, 21, 22, 23, 24, 25, 26, 27, 28, 29, 30, 31, 32, 33, 35, 36, 37, 38, 39, 40, 41, 42, 43, 44, 45, 48, 50, 51, 52, 53, 54 and 55.

Thrips tabaci = Thrips tabaci (onion thrips) sunflower leaf disc test; settings: foliar, 144 h, application rate of 200 ppm, sunflower leaf discs, mixed ages, 6 days after infestation
Protocol: Thrips tabaci (Onion thrips):
Sunflower leaf discs were placed on agar in 24-well microtiter plates and sprayed with aqueous test solutions prepared from 10'000 ppm DMSO stock solutions. After drying the leaf discs were infested with a thrips population of mixed ages. The samples were assessed for mortality 6 days after infestation.

Tetranychus urticae = Tetranychus urticae (two-spotted spider mite) bean leaf disc test; settings: foliar, 192 h, application rate of 200 ppm, bean leaf discs, mixed population (mobile stages), 8 days after infestation
Protocol: Tetranychus urticae (Two-Spotted Spider Mite):
Bean leaf discs on agar in 24-well microtiter plates were sprayed with aqueous test solutions prepared from 10'000 ppm DMSO stock solutions. After drying the leaf discs were infested with a mite population of mixed ages. The samples were assessed for mortality on mixed population (mobile stages) 8 days after infestation.

Cn1nc(C(F)(F)C(F)(F)F)c(C(F)(F)F)c1-n1cc(-c2cc(C(=O)NC3(C(F)(F)F)CC3)c(Cl)s2)cn1 [Compound 22]
≥ 80%: control (mortality, anti-feedant effect or growth inhibition) at 200 ppm (Spodoptera littoralis) | percent effect (mortality or growth inhibition) at 200 ppm (Plutella xylostella) | percent effect (mortality or growth inhibition) at 200 ppm (Diabrotica balteata) | mortality at 200 ppm (Thrips tabaci) | mortality at 200 ppm (Tetranychus urticae)

Cn1nc(C(F)(F)C(F)(F)F)c(C(F)(F)F)c1-n1cc(-c2csc(C(=O)NC3CC3)n2)cn1 [Compound 40]
≥ 80%: control (mortality, anti-feedant effect or growth inhibition) at 200 ppm (Spodoptera littoralis) | percent effect (mortality or growth inhibition) at 200 ppm (Plutella xylostella) | percent effect (mortality or growth inhibition) at 200 ppm (Diabrotica balteata)

Cn1nc(C(F)(F)C(F)(F)F)c(C(F)(F)F)c1-n1cc(-c2cc(C(=O)NCCC(F)(F)F)c(Cl)s2)cn1 [Compound 30]
≥ 80%: control (mortality, anti-feedant effect or growth inhibition) at 200 ppm (Spodoptera littoralis) | percent effect (mortality or growth inhibition) at 200 ppm (Plutella xylostella) | percent effect (mortality or growth inhibition) at 200 ppm (Diabrotica balteata) | mortality at 200 ppm (Thrips tabaci) | mortality at 200 ppm (Tetranychus urticae)

Cn1nc(C(F)(F)C(F)(F)F)c(C(F)(F)F)c1-n1cc(-c2cc(C(=O)NCc3ccccc3)c(Cl)s2)cn1 [Compound 19]
≥ 80%: control (mortality, anti-feedant effect or growth inhibition) at 200 ppm (Spodoptera littoralis) | percent effect (mortality or growth inhibition) at 200 ppm (Plutella xylostella) | percent effect (mortality or growth inhibition) at 200 ppm (Diabrotica balteata) | mortality at 200 ppm (Tetranychus urticae)

Cn1nc(C(F)(F)C(F)(F)F)c(OC(F)F)c1-n1cc(-c2cc(C(=O)NC3(C#N)CC3)cs2)cn1 [Compound 39]
≥ 80%: control (mortality, anti-feedant effect or growth inhibition) at 200 ppm (Spodoptera littoralis) | percent effect (mortality or growth inhibition) at 200 ppm (Plutella xylostella) | percent effect (mortality or growth inhibition) at 200 ppm (Diabrotica balteata) | mortality at 200 ppm (Tetranychus urticae)

Cn1nc(C(F)(F)C(F)(F)F)c(C(F)(F)F)c1-n1cc(-c2nc(C(=O)NC3CC3)c(Cl)s2)cn1 [Compound 8, 5-chloro-N-cyclopropyl-2-[1-[2-methyl-5-(1,1,2,2,2-pentafluoroethyl)-4-(trifluoromethyl)pyrazol-3-yl]pyrazol-4-yl]thiazole-4-carboxamide]
≥ 80%: control (mortality, anti-feedant effect or growth inhibition) at 200 ppm (Spodoptera littoralis) | percent effect (mortality or growth inhibition) at 200 ppm (Plutella xylostella) | percent effect (mortality or growth inhibition) at 200 ppm (Diabrotica balteata)

Cn1nc(C(F)(F)C(F)(F)F)c(C(F)(F)F)c1-n1cc(-n2cc(C(=O)NC3(C#N)CC3)c(C(F)(F)F)n2)cn1 [Compound 11]
≥ 80%: control (mortality, anti-feedant effect or growth inhibition) at 200 ppm (Spodoptera littoralis) | percent effect (mortality or growth inhibition) at 200 ppm (Plutella xylostella) | percent effect (mortality or growth inhibition) at 200 ppm (Diabrotica balteata) | mortality at 200 ppm (Thrips tabaci) | mortality at 200 ppm (Tetranychus urticae)

Cn1nc(C(F)(F)C(F)(F)F)c(C(F)(F)F)c1-n1cc(-c2cc(C(=O)Nc3ccncc3)c(Cl)s2)cn1 [Compound 21]
≥ 80%: control (mortality, anti-feedant effect or growth inhibition) at 200 ppm (Spodoptera littoralis) | percent effect (mortality or growth inhibition) at 200 ppm (Plutella xylostella) | percent effect (mortality or growth inhibition) at 200 ppm (Diabrotica balteata) | mortality at 200 ppm (Thrips tabaci)

Cn1nc(C(F)(F)C(F)(F)F)c(C(F)(F)F)c1-n1cc(-c2nc(C(=O)NC3(C#N)CC3)c(Cl)s2)cn1 [Compound 7, 5-chloro-N-(1-cyanocyclopropyl)-2-[1-[2-methyl-5-(1,1,2,2,2-pentafluoroethyl)-4-(trifluoromethyl)pyrazol-3-yl]pyrazol-4-yl]thiazole-4-carboxamide]
≥ 80%: control (mortality, anti-feedant effect or growth inhibition) at 200 ppm (Spodoptera littoralis) | percent effect (mortality or growth inhibition) at 200 ppm (Plutella xylostella) | percent effect (mortality or growth inhibition) at 200 ppm (Diabrotica balteata) | mortality at 200 ppm (Tetranychus urticae)

Cn1nc(C(F)(F)C(F)(F)F)c(C(F)(F)F)c1-n1cc(-n2cc(C(=O)NC3(C#N)CC3)c(C(F)(F)F)c2)cn1 [Compound 44]
≥ 80%: control (mortality, anti-feedant effect or growth inhibition) at 200 ppm (Spodoptera littoralis) | percent effect (mortality or growth inhibition) at 200 ppm (Plutella xylostella) | percent effect (mortality or growth inhibition) at 200 ppm (Diabrotica balteata) | mortality at 200 ppm (Thrips tabaci)

Cn1nc(C(F)(F)C(F)(F)F)c(C(F)(F)F)c1-n1cc(-c2cc(Cl)c(C(=O)NC3CC3)s2)cn1 [Compound 1, 3-chloro-N-cyclopropyl-5-[1-[2-methyl-5-(1,1,2,2,2-pentafluoroethyl)-4-(trifluoromethyl)pyrazol-3-yl]pyrazol-4-yl]thiophene-2-carboxamide]
≥ 80%: control (mortality, anti-feedant effect or growth inhibition) at 200 ppm (Spodoptera littoralis) | percent effect (mortality or growth inhibition) at 200 ppm (Plutella xylostella) | percent effect (mortality or growth inhibition) at 200 ppm (Diabrotica balteata) | mortality at 200 ppm (Thrips tabaci) | mortality at 200 ppm (Tetranychus urticae)

Cn1nc(C(F)(F)C(F)(F)F)c(C(F)(F)F)c1-n1cc(-c2cc(C(=O)NCc3ccccn3)c(Cl)s2)cn1 [Compound 26]
≥ 80%: control (mortality, anti-feedant effect or growth inhibition) at 200 ppm (Spodoptera littoralis) | percent effect (mortality or growth inhibition) at 200 ppm (Plutella xylostella) | percent effect (mortality or growth inhibition) at 200 ppm (Diabrotica balteata) | mortality at 200 ppm (Tetranychus urticae)

Cn1nc(C(F)(F)C(F)(F)F)c(C(F)(F)F)c1-n1cc(-c2cc(C(=O)Nc3ccc(Cl)cc3)c(Cl)s2)cn1 [Compound 25]
≥ 80%: percent effect (mortality or growth inhibition) at 200 ppm (Plutella xylostella) | percent effect (mortality or growth inhibition) at 200 ppm (Diabrotica balteata)

Cn1nc(C(F)(F)C(F)(F)F)c(C(F)(F)F)c1-n1cc(-c2csc(C(=O)NC3(C#N)CC3)c2)cn1 [Compound 51]
≥ 80%: control (mortality, anti-feedant effect or growth inhibition) at 200 ppm (Spodoptera littoralis) | percent effect (mortality or growth inhibition) at 200 ppm (Plutella xylostella) | percent effect (mortality or growth inhibition) at 200 ppm (Diabrotica balteata)

Cn1nc(C(F)(F)C(F)(F)F)c(C(F)(F)F)c1-n1cc(-c2cc(Cl)c(C(=O)NC3(C#N)CC3)s2)cn1 [Compound 2, 3-chloro-N-(1-cyanocyclopropyl)-5-[1-[2-methyl-5-(1,1,2,2,2-pentafluoroethyl)-4-(trifluoromethyl)pyrazol-3-yl]pyrazol-4-yl]thiophene-2-carboxamide]
≥ 80%: control (mortality, anti-feedant effect or growth inhibition) at 200 ppm (Spodoptera littoralis) | percent effect (mortality or growth inhibition) at 200 ppm (Plutella xylostella)

C=C(C)CNC(=O)c1cc(-c2cnn(-c3c(C(F)(F)F)c(C(F)(F)C(F)(F)F)nn3C)c2)sc1Cl [Compound 13]
≥ 80%: control (mortality, anti-feedant effect or growth inhibition) at 200 ppm (Spodoptera littoralis) | percent effect (mortality or growth inhibition) at 200 ppm (Plutella xylostella) | mortality at 200 ppm (Tetranychus urticae)

Cn1nc(C(F)(F)C(F)(F)F)c(C(F)(F)F)c1-n1cc(-c2csc(C(=O)NC3(C#N)CC3)n2)cn1 [Compound 41]
≥ 80%: control (mortality, anti-feedant effect or growth inhibition) at 200 ppm (Spodoptera littoralis) | percent effect (mortality or growth inhibition) at 200 ppm (Plutella xylostella) | percent effect (mortality or growth inhibition) at 200 ppm (Diabrotica balteata)

Cc1nn(-c2cnn(-c3c(C(F)(F)F)c(C(F)(F)C(F)(F)F)nn3C)c2)cc1C(=O)NC1CC1 [Compound 46]
≥ 80%: control (mortality, anti-feedant effect or growth inhibition) at 200 ppm (Spodoptera littoralis) | percent effect (mortality or growth inhibition) at 200 ppm (Plutella xylostella)

CC(C)CNC(=O)c1cc(-c2cnn(-c3c(C(F)(F)F)c(C(F)(F)C(F)(F)F)nn3C)c2)sc1Cl [Compound 23]
≥ 80%: control (mortality, anti-feedant effect or growth inhibition) at 200 ppm (Spodoptera littoralis) | percent effect (mortality or growth inhibition) at 200 ppm (Plutella xylostella) | percent effect (mortality or growth inhibition) at 200 ppm (Diabrotica balteata) | mortality at 200 ppm (Tetranychus urticae)
